According to the supplement of paper PMC10307832:

Legend:
Experiment in all cases: relative viability (nuclei count vs DMSO), 5 days (fraction); higher = more cells survive
[1] = tested on: LK-2
Method in brief: (§1)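 After 5 days of treatment, lung cancer cells in 1536-well plates were fixed and stained in a single step (final 0.05% Triton X-100, 1% formaldehyde, 1 ug/ml Hoechst) and their nuclei counted on 4× images. Treatment had been applied by pin tool the day after seeding as one drug alone or as a fixed anchor-drug dose with five library-drug doses (not always all listed) in √10 steps. Relative viability is the nuclei count of treated wells divided by that of vehicle wells, and values are medians of duplicate plates.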

[2] = tested on: RERF-LC-KJ
Method in brief: as §1

[3] = tested on: NCI-H1563
Method in brief: as §1

[4] = tested on: HCC-827
Method in brief: as §1

[5] = tested on: PC-3 [JPC-3]
Method in brief: as §1

[6] = tested on: NCI-H520
Method in brief: as §1

[7] = tested on: NCI-H1437
Method in brief: as §1

[8] = tested on: EKVX
Method in brief: as §1

[9] = tested on: CAL-12T
Method in brief: as §1

[10] = tested on: NCI-H1650
Method in brief: as §1

[11] = tested on: HCC-15
Method in brief: as §1

[12] = tested on: PC-14
Method in brief: as §1

[13] = tested on: NCI-H1734
Method in brief: as §1

[14] = tested on: COR-L23
Method in brief: as §1

[15] = tested on: SW 1573
Method in brief: as §1

[16] = tested on: NCI-H1355
Method in brief: as §1

[17] = tested on: NCI-H661
Method in brief: as §1

[18] = tested on: NCI-H322M
Method in brief: as §1

[19] = tested on: H3255
Method in brief: as §1

[20] = tested on: ABC-1
Method in brief: as §1

[21] = tested on: NCI-H2405
Method in brief: as §1

[22] = tested on: NCI-H2228
Method in brief: as §1

Structure (SMILES): O=C(O)c1ccc(-c2c[nH]c3ncc(-c4ccccc4)cc23)cc1C1CCCC1 + CS(=O)(=O)N1CCN(Cc2cc3nc(-c4cccc5[nH]ncc45)nc(N4CCOCC4)c3s2)CC1 [Pictilisib] (partner 1 µM)
- relative viability ([1]; first compound 0.04 µM): 0.754
- relative viability ([1]; first compound 0.1265 µM): 0.507
- relative viability ([1]; first compound 0.4 µM): 0.611
- relative viability ([1]; first compound 1.265 µM): 0.592
- relative viability ([2]; first compound 0.04 µM): 0.487
- relative viability ([2]; first compound 0.1265 µM): 0.594
- relative viability ([2]; first compound 0.4 µM): 0.503
- relative viability ([2]; first compound 1.265 µM): 0.501
- relative viability ([3]; first compound 0.04 µM): 0.604
- relative viability ([3]; first compound 0.1265 µM): 0.658
- relative viability ([3]; first compound 0.4 µM): 0.65
- relative viability ([3]; first compound 1.265 µM): 0.742
- relative viability ([4]; first compound 0.04 µM): 1.12
- relative viability ([4]; first compound 0.1265 µM): 1.12
- relative viability ([4]; first compound 0.4 µM): 0.965
- relative viability ([4]; first compound 1.265 µM): 0.859
- relative viability ([5]; first compound 0.04 µM): 0.784
- relative viability ([5]; first compound 0.1265 µM): 0.799
- relative viability ([5]; first compound 0.4 µM): 0.757
- relative viability ([5]; first compound 1.265 µM): 0.768
- relative viability ([6]; first compound 0.04 µM): 0.288
- relative viability ([6]; first compound 0.1265 µM): 0.268
- relative viability ([6]; first compound 0.4 µM): 0.299
- relative viability ([6]; first compound 1.265 µM): 0.262
- relative viability ([7]; first compound 0.04 µM): 0.489
- relative viability ([7]; first compound 0.1265 µM): 0.446
- relative viability ([7]; first compound 0.4 µM): 0.371
- relative viability ([7]; first compound 1.265 µM): 0.263
- relative viability ([8]; first compound 0.04 µM): 0.462
- relative viability ([8]; first compound 0.1265 µM): 0.524
- relative viability ([8]; first compound 0.4 µM): 0.468
- relative viability ([8]; first compound 1.265 µM): 0.374
- relative viability ([9]; first compound 0.04 µM): 0.478
- relative viability ([9]; first compound 0.1265 µM): 0.696
- relative viability ([9]; first compound 0.4 µM): 0.494
- relative viability ([9]; first compound 1.265 µM): 0.448
- relative viability ([10]; first compound 0.04 µM): 0.585
- relative viability ([10]; first compound 0.1265 µM): 0.585
- relative viability ([10]; first compound 0.4 µM): 0.556
- relative viability ([10]; first compound 1.265 µM): 0.381
- relative viability ([11]; first compound 0.04 µM): 0.736
- relative viability ([11]; first compound 0.1265 µM): 0.839
- relative viability ([11]; first compound 0.4 µM): 0.755
- relative viability ([11]; first compound 1.265 µM): 0.514
- relative viability ([12]; first compound 0.04 µM): 0.765
- relative viability ([12]; first compound 0.1265 µM): 0.947
- relative viability ([12]; first compound 0.4 µM): 0.713
- relative viability ([12]; first compound 1.265 µM): 0.801
- relative viability ([13]; first compound 0.04 µM): 0.429
- relative viability ([13]; first compound 0.1265 µM): 0.556
- relative viability ([13]; first compound 0.4 µM): 0.445
- relative viability ([13]; first compound 1.265 µM): 0.419
- relative viability ([14]; first compound 0.04 µM): 0.775
- relative viability ([14]; first compound 0.1265 µM): 0.9
- relative viability ([14]; first compound 0.4 µM): 0.798
- relative viability ([14]; first compound 1.265 µM): 0.425
- relative viability ([15]; first compound 0.04 µM): 0.638
- relative viability ([15]; first compound 0.1265 µM): 0.621
- relative viability ([15]; first compound 0.4 µM): 0.512
- relative viability ([15]; first compound 1.265 µM): 0.317
- relative viability ([16]; first compound 0.04 µM): 0.481
- relative viability ([16]; first compound 0.1265 µM): 0.514
- relative viability ([16]; first compound 0.4 µM): 0.4
- relative viability ([16]; first compound 1.265 µM): 0.35
- relative viability ([17]; first compound 0.1265 µM): 0.464
- relative viability ([17]; first compound 0.4 µM): 0.508
- relative viability ([17]; first compound 1.265 µM): 0.424
- relative viability ([18]; first compound 0.04 µM): 0.564
- relative viability ([18]; first compound 0.1265 µM): 0.526
- relative viability ([18]; first compound 0.4 µM): 0.487
- relative viability ([18]; first compound 1.265 µM): 0.482
- relative viability ([19]; first compound 0.04 µM): 0.502
- relative viability ([19]; first compound 0.1265 µM): 0.529
- relative viability ([19]; first compound 0.4 µM): 0.441
- relative viability ([19]; first compound 1.265 µM): 0.462
- relative viability ([20]; first compound 0.04 µM): 0.673
- relative viability ([20]; first compound 0.1265 µM): 0.596
- relative viability ([20]; first compound 0.4 µM): 0.689
- relative viability ([20]; first compound 1.265 µM): 0.757
- relative viability ([21]; first compound 0.04 µM): 0.458
- relative viability ([21]; first compound 0.1265 µM): 0.543
- relative viability ([21]; first compound 0.4 µM): 0.383
- relative viability ([21]; first compound 1.265 µM): 0.408
- relative viability ([22]; first compound 0.04 µM): 0.58
- relative viability ([22]; first compound 0.1265 µM): 0.549
- relative viability ([22]; first compound 0.4 µM): 0.26
- relative viability ([22]; first compound 1.265 µM): 0.274
